Laboratory results taken from EP2698385A1, “Detection of synthetic cannabinoids” (priority 2012, dated 2014).

Experiments:
[1] = test system: antiserum raised to Immunogen II (Hapten B-BTG); experiment: Competitive ELISA microtiter plate assay (Example 19), antiserum raised to Immunogen II, Hapten A-HRP conjugate as detection reagent; assay type: binding, sheep
Experimental: Aqueous solutions of the immunogens prepared in examples 5 and 13 were formulated with Freund's Complete Adjuvant (FCA) to form emulsions consisting of 2mg/ml Immunogen I and 2mg/ml of Immunogen II in 50%(v/v) FCA. Three sheep were immunised with each emulsion (1° immunisations), 0.25ml being intramuscularly injected at four sites in the rump of each animal. Subsequent immunisations (boosts 2-8) contained 1mg/ml Immunogen I and 1mg/ml Immunogen II. All boosts were emulsified in 50%(v/v) Freund's Incomplete Adjuvant (FIA) and administered to the appropriate sheep in the same manner as the 1° immunisations, at monthly intervals. Blood sampling took place 7-14 days after each boost. Each sample was processed to produce antiserum, which was further purified by caprylic acid and ammonium sulphate precipitation to yield an immunoglobulin (Ig) fraction. The Ig fraction was evaluated by competitive ELISA microtiter plate assay, as described in example 19 below.
Example 19: Development of competitive ELISA for JWH synthetic cannabinoids and metabolites. • (a) The wells of an enhanced binding 96 well polystyrene microtiter plate were coated with the Ig fraction of the antiserum raised to Immunogen I (Hapten A-BTG - example 5) and diluted in 10mM Tris, pH8.5 (125µl/well). The appropriate antibody coating concentration was determined using standard ELISA checkerboard techniques. The plate was incubated for 2 hours at 37°C, washed 4 times over a 10-minute period with Tris buffered saline containing Tween 20 (TBST) and tapped dry. Standard solutions of JWH synthetic cannabinoids, metabolites and selected molecules were prepared in TBST and 50µl of each was added to the appropriate wells. 75µl of conjugate (Hapten A-HRP) diluted in Tris buffer containing EDTA, D-mannitol, sucrose, thimerosal and BSA, was added to each of the wells. The appropriate dilution of conjugate was also determined using standard ELISA checkerboard techniques. The plate was incubated at 25°C for 1 hour. The excess unbound conjugate was removed by washing 6 times over a 10-minute period with TBST and tapped dry. 125µl of tetramethylbenzedine (TMB) substrate solution was added to each well of the plate that was then incubated for 15-20 minutes in the dark at room temperature. The reaction was terminated by addition of 125µl of 0.2M sulphuric acid to each well. The absorbance was then measured at 450nm using a microtiter plate reader. Employing each series of standards, calibration curves were generated and these were used to determine the specificity of the immunoassay for the JWH synthetic cannabinoids, metabolites and selected molecules. The results of this study are presented in Tables 1 to 3, cross-reactivity being calculated according to the following formula: %CR = […] /IC50,CR X 100 [formula] Where %CR is the percentage cross-reactivity, IC50, YWH-018 is the concentration of JWH-018 that causes 50% displacement of signal and IC50, CR is the concentration of JWH synthetic cannabinoid/metabolite/selected molecule that causes 50% displacement of signal.
Table 1: Data generated from a competitive microtiter plate assay for JWH synthetic cannabinoids and metabolites, employing antiserum raised to Immunogen II (Hapten B-BTG) and conjugate (Hapten A-HRP) as detection reagent. (b) In a similar manner to that described in Example 19(a), the wells of a 96 well microtiter plate were coated with the Ig fraction of the antiserum raised to Immunogen II ([…]). Conjugate (Hapten A-HRP) was employed as a detection reagent.

Antibody to Immunogen II = experiment: Competitive ELISA (Example 36), antibody RS1833B12, tracer ESC4555/LK959, standard JWH-018; assay type: binding, sheep
In short: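 Sheep antiserum IgG coated on plates overnight at 4°C; standard or cross-reactant competes with hapten-HRP conjugate in Tris buffer pH 7.2 for 1 h at 25°C.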

[2] = Table 1, 40 ng/ml highest concentration tested
[3] = Table 1, CR based on 100% for JWH-018
[4] = Cross-reactants at 100 ng/ml, Antibody to Immunogen II

In the case of `O=C(c1cccc2ccccc12)c1c[nH]c2ccccc12` [3-(1-naphthoyl)-1H-Indole, 3-(1-naphthoyl)-1H-indole], the IC50 ng/ml [1, 2] is reported as >> 40 ng/ml, the “% Cross-reactivity” value [1, 3] is reported as << 5.28% and the “%B/B0” value (Antibody to Immunogen II; [4]) is reported as 99.18%.

In the case of `CCCCCn1cc(C(=O)c2cccc3ccccc23)c2c(O)cccc21` [JWH-018 4-hydroxyindole metabolite], the IC50 [1, 2] is reported as 9.16 ng/mL, the “% Cross-reactivity” value [1, 3] is reported as 23.03% and the “%B/B0” value (Antibody to Immunogen II; [4]) is reported as 29.49%.

With `CCCCCn1cc(C(=O)c2cccc3ccccc23)c2cc(O)ccc21` [JWH-018 5-hydroxyindole metabolite] the IC50 [1, 2] was 1.62 ng/mL, the “% Cross-reactivity” value [1, 3] was 130.25% and the “%B/B0” value (Antibody to Immunogen II; [4]) was 12.14%.

With `CCCCCn1cc(C(=O)c2cccc3ccccc23)c2ccc(O)cc21` [JWH-018 6-hydroxyindole metabolite] the IC50 [1, 2] was 0.98 ng/mL, the “% Cross-reactivity” value [1, 3] was 215.31% and the “%B/B0” value (Antibody to Immunogen II; [4]) was 24.39%.

In the case of `O=C(c1cccc2ccccc12)c1cn(CCCCCO)c2ccccc12` [JWH-018 N-(5-hydroxypentyl) metabolite], the IC50 [1, 2] is reported as 1.15 ng/mL, the “% Cross-reactivity” value [1, 3] is reported as 183.48% and the “%B/B0” value (Antibody to Immunogen II; [4]) is reported as 53.38%.

In the case of `O=C(O)CCCCn1cc(C(=O)c2cccc3ccccc23)c2ccccc21` [JWH-018 N-pentanoic acid metabolite], the IC50 [1, 2] is reported as 5.48 ng/mL, the “% Cross-reactivity” value [1, 3] is reported as 38.50% and the “%B/B0” value (Antibody to Immunogen II; [4]) is reported as 85.61%.

With `CCCCCn1cc(C(=O)c2cccc3ccccc23)c2ccccc21` [JWH-018] the IC50 [1, 2] was 2.11 ng/mL, the “% Cross-reactivity” value [1, 3] was 100.00% and the IC50 ([1]; first Table 4, Immunogen II) was 1.97 ng/mL. For the same compound, the “% Cross-reactivity” value ([1]; first Table 4, Immunogen II, JWH-018 = 100) was 100.00%, the “%B/B0” value (Antibody to Immunogen II; [4]) was 9.29% and the “%B/B0” value (Antibody to Immunogen II; JWH-018 standard 0.625 ng/ml) was 68%. For the same compound, the “%B/B0” value (Antibody to Immunogen II; JWH-018 standard 1.25 ng/ml) was 53%, the “%B/B0” value (Antibody to Immunogen II; JWH-018 standard 2.5 ng/ml) was 34% and the “%B/B0” value (Antibody to Immunogen II; JWH-018 standard 5 ng/ml) was 25%. The “%B/B0” value (Antibody to Immunogen II; JWH-018 standard 10 ng/ml) was 17%, the “%B/B0” value (Antibody to Immunogen II; JWH-018 standard 20 ng/ml) was 13% and the “%B/B0” value (Antibody to Immunogen II; JWH-018 standard 40 ng/ml) was 10%. For the same compound, the “IC50” value (Antibody to Immunogen II; Table 3a standard curve, standard concentration which produces 50% B/B0) was 1.333 ng/mL.

With `CCCCn1cc(C(=O)c2cccc3ccccc23)c2ccccc21` [JWH-073] the IC50 [1, 2] was 1.56 ng/mL, the “% Cross-reactivity” value [1, 3] was 135.26% and the “%B/B0” value (Antibody to Immunogen II; [4]) was 15.24%.

`CCCCCn1cc(C(=O)c2ccc(Cl)c3ccccc23)c2ccccc21` [JWH-398] was tested, and the IC50 [1, 2] was 17.55 ng/mL, the “% Cross-reactivity” value [1, 3] was 12.02% and the “%B/B0” value (Antibody to Immunogen II; [4]) was 30.31%.

In the case of `O=C(c1cccc2ccccc12)c1cn(CCN2CCOCC2)c2ccccc12` [WIN 55,225 (other name JWH-200), JWH-200], the IC50 [1, 2] is reported as 1.66 ng/mL, the “% Cross-reactivity” value [1, 3] is reported as 127.11% and the “%B/B0” value (Antibody to Immunogen II; [4]) is reported as 54.02%.
